The values below come from article PMC5522996, “Big conductance calcium‐activated potassium channel openers control spasticity without sedation” (British Journal of Pharmacology, 2017).

The structures appear in SMILES notation. pEC50, pIC50: −log10 of the molar value. Entries after “also recorded” stand apart in the source; their conditions may differ.

In data set [1] the test system is mouse vas deferens. In words: βγ‐methylene ATP‐induced contraction of electrically unstimulated vas deferens. It is filed as cell-based. The settings on record: 100 nM, 30 min before βγ‐methylene ATP.
In data set [2] the target is T1, CYP450 2E1 (Homo sapiens, UniProt P05181).
T1 construct: host or cells: BTI NN-5B1-4 or Sf9 insect cells
T1 sequence (P05181 whole entry): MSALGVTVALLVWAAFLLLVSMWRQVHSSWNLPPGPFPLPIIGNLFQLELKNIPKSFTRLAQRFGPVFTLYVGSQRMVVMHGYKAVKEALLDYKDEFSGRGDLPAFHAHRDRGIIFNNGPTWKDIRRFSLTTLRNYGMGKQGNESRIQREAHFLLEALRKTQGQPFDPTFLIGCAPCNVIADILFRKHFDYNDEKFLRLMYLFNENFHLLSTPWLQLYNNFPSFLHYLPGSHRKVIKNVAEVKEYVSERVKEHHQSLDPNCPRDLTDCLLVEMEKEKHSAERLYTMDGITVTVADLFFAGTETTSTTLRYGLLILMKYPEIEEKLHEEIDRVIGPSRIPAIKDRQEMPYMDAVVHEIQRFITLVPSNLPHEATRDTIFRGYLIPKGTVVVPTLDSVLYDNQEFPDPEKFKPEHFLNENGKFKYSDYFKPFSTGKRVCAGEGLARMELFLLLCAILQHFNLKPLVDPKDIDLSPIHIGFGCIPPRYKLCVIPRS
The data set can be described thus: CYP450 inhibition of substrate binding. It is filed as in vitro ADME. The settings on record: read-out: IC50 Inhibition of substrate binding, VSN16R.
Source text: (§1) Inhibition of binding of either 3-cyano-7-ethoxycoumarin, dibenzylfluorescein or 7-benzyoxy-4-
(§2) (trifluoromethyl) coumarin in human enzyme transfected BTI NN-5B1-4 cells or Sf9 insect cells or
(§3) inhibition of dextromethorphan substrate to CYP450 2D6 in liver microsomes.

For data set [3], the system named is Na+ channel (site 2). The data set can be described thus: Receptor binding profile of VSN16R. The arrangement: species or system human. The settings on record: 10µM VSN16R.
Data set [4] is described as follows: Pharmacokinetics in rats. In kind it is in vivo, rat. Here is the method: The stability of compounds when subjected to hepatic and plasma degradation was assessed in vitro by Inpharmatica, Cambridge, UK. Compounds (1 μM) were incubated with either pooled mouse liver microsomes (0.1 mg protein mL^−1) or pooled mouse plasma at 37°C for 0, 5, 10, 20 and 40 min before termination with acetonitrile containing warfarin as an analytical internal standard. Samples were centrifuged, and the resultant supernatant analysed for parent compound. The mass responses at baseline were taken as the 100% reference values against which the disappearance of the compound was measured. The natural log of the % remaining values was used to generate linear plots of disappearance of the compounds. Half‐life values were calculated from the slope of these plots. Hepatocyte metabolism was assessed by Cyprotex, Macclesfield, and 10 μM VSN16R was incubated with primary mouse, rat, monkey (Macaque) and human hepatocytes for 1 h, and the presence of metabolites was assessed using liquid […] mass spectroscopy. The stability of VSN16R was assessed in vivo by Inpharmatica, Cyprotex and Charles Rivers, Cambridge. Blood (plasma) samples were obtained prior to and 5 min to 24 h after drug administration of 2–5 mg·kg^−1 i.v. or 5 mg·kg^−1 p.o. VSN16R into outbred mice and rats (n = 3 per time point). In addition, plasma, brain and spinal cord samples were obtained from ABH with spastic EAE. Immediately after blood collection, the brain and spinal cord were removed and then stored at −20°C prior to assay. Tissue samples were weighed, homogenized and centrifuged, and the lysates generated. Brain lysates and plasma were assayed by LC–MS methods by Inpharmatica/Charles Rivers, Cambridge, UK. This was also performed using a Waters Xevo TQ or API4000, AB Sciex mass spectrometer using spiked samples as standards. PK Solutions Software (Summit Research Services, Montrose, CO, USA), AB Sciex Analyst software combined with Thermo Fisher Scientific Watson LIMS processing and reporting software or WinNonLin pharmacokinetic or PK solutions 2.0 software (Summit Research Services, Montrose CO, USA) were used to produce PK parameters. Data are expressed as mean ± SEM. The detection limit of VSN16R was 2 ng·mL^−1 in plasma and brain and 14 ng·mL^−1 in spinal cords. The detection limit of VSN22R was 2 ng·mL^−1 in plasma and 0.1 ng·mL^−1 for VSN44R in plasma. Pharmacokinetics in toxicological samples in rats (n = 6 per group), dogs (n = 6 per group) and humans (n = 6 per group) were performed by Charles Rivers (Edinburgh, UK).

The target in data set [5] is T2, H1 (Homo sapiens, UniProt P35367).
T2 construct: purchased Cerep; Chantest; DiscoveRx; Multispan; MDS Pharma Services
T2 sequence (P35367 whole entry): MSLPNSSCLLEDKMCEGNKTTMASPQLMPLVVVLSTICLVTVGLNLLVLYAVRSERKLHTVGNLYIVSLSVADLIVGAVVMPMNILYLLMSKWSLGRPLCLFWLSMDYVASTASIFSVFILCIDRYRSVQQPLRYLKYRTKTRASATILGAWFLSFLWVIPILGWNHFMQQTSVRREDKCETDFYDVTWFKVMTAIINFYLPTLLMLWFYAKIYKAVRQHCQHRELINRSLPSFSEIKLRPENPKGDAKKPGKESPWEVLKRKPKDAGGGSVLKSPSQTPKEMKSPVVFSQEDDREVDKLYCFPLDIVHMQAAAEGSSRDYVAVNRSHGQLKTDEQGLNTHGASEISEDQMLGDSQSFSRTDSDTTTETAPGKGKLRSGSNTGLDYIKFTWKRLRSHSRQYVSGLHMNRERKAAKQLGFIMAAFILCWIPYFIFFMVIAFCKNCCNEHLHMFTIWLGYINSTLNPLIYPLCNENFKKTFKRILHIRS
In words: Receptor binding profile of VSN16R. The settings on record: 10µM VSN16R.

The subject of data set [6] is Ca2+ channel (L verapamil site). In words: Receptor binding profile of VSN16R. Further details: species or system human. The settings on record: 10µM VSN16R.
The target in data set [7] is T3, NT1 (Homo sapiens, UniProt P30989).
T3 construct: purchased Cerep; Chantest; DiscoveRx; Multispan; MDS Pharma Services
T3 sequence (P30989 whole entry): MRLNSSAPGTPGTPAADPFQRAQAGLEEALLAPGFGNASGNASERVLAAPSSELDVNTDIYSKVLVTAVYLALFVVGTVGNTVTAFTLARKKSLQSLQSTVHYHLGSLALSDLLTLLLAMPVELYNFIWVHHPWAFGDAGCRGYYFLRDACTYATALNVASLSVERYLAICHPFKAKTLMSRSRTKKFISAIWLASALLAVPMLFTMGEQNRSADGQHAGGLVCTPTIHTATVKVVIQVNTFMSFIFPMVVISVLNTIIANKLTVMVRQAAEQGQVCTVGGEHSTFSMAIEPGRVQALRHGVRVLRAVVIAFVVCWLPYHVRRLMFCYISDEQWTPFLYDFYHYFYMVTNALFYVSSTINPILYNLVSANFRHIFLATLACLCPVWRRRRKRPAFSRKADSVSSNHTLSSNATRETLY
The data set can be described thus: Receptor binding profile of VSN16R. The settings on record: 10µM VSN16R.

The target of data set [8] is T4, NK2 (Homo sapiens, UniProt P21452).
T4 construct: purchased Cerep; Chantest; DiscoveRx; Multispan; MDS Pharma Services
T4 sequence (P21452 whole entry): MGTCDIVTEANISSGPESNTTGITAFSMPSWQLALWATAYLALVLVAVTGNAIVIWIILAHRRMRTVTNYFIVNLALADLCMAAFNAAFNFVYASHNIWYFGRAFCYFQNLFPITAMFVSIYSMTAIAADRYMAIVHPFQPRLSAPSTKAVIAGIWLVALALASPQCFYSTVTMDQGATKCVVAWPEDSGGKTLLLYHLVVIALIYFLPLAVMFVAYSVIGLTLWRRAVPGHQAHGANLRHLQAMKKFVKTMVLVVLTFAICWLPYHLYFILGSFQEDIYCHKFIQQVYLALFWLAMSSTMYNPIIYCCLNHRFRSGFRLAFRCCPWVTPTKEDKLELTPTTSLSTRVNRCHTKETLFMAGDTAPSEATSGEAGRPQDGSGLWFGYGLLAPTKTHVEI
The data set can be described thus: Receptor binding profile of VSN16R. The settings on record: 10µM VSN16R.

In data set [9] the target is T5, H2 (Homo sapiens, UniProt P25021).
T5 construct: purchased Cerep; Chantest; DiscoveRx; Multispan; MDS Pharma Services
T5 sequence (P25021 whole entry): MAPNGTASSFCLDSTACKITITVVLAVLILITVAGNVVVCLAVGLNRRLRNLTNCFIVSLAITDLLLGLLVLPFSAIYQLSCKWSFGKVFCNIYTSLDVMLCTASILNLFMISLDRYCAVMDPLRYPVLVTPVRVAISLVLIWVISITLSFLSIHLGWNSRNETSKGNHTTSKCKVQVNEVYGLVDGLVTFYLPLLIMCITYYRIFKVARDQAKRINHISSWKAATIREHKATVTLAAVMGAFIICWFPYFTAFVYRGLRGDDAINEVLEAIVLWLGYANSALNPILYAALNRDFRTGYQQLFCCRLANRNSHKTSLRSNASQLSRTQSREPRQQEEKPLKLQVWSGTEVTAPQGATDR
In words: Receptor binding profile of VSN16R. The settings on record: 10µM VSN16R.

The target in data set [10] is T6, monoglycerol lipase (Homo sapiens, UniProt Q99685).
T6 construct: purchased Cerep; Chantest; DiscoveRx; Multispan; MDS Pharma Services
T6 sequence (Q99685 whole entry): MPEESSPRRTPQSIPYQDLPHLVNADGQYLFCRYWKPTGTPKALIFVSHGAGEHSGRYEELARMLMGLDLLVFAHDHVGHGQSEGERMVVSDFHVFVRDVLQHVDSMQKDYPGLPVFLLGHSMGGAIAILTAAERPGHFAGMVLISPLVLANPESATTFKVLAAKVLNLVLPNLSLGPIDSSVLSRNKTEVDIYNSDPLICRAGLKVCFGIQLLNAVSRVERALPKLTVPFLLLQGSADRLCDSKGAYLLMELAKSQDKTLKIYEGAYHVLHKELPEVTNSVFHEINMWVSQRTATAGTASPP
In words: Receptor binding profile of VSN16R. The settings on record: 10µM VSN16R.

Data set [11] addresses CYP450 3A5 (Homo sapiens, UniProt P20815).
Source text: as §1, §2, §3
Data set [12] concerns the target T7, EDG2 (Homo sapiens, UniProt Q92633).
T7 construct: purchased Cerep; Chantest; DiscoveRx; Multispan; MDS Pharma Services
In words: Receptor binding profile of VSN16R. The settings on record: 10µM VSN16R.

Data set [13] concerns mouse vas deferens. The data set can be described thus: Electrically‐evoked contraction of the mouse vas deferens. The settings on record: Mus musculus, read-out: EC50, inhibition of electrically‐evoked contraction. In kind it is cell-based.
Data set [14] relates to α1(non-selective). The data set can be described thus: Receptor binding profile of VSN16R. The settings on record: 10µM VSN16R. Further details: species or system human.
[15] abbreviates: first 12 h following p.o. dosing of rats.

T7 sequence (Q92633 whole entry): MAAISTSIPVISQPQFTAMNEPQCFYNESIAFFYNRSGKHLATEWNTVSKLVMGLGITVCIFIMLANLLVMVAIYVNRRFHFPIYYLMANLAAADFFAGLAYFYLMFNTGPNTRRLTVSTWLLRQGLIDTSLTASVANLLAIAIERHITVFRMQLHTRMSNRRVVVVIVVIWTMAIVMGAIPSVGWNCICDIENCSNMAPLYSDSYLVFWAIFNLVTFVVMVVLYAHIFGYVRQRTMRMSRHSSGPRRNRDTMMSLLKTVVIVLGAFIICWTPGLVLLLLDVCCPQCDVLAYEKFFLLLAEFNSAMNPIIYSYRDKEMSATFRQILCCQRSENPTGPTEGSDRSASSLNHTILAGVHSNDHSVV
Sequence of CYP450 3A5 (P20815 whole entry): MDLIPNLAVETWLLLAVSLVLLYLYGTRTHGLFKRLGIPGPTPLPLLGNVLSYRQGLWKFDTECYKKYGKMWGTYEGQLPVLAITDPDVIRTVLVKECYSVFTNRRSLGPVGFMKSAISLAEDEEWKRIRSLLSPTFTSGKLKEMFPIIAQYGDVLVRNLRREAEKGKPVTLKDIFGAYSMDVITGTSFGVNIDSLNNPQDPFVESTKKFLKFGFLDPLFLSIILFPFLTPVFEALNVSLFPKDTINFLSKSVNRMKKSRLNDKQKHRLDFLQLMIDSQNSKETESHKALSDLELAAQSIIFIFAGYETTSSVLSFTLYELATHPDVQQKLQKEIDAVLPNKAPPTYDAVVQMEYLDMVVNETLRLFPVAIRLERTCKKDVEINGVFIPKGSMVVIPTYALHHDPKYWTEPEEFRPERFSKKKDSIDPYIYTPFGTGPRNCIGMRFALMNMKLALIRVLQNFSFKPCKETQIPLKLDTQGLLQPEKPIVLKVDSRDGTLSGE

`C[C@H](CO)NC(=O)c1cccc(/C=C\CCCC(=O)N(C)C)c1` [VSN16R]: in [1], the “Effect on βγ‐methylene ATP‐induced contractions” value is reported as “does not inhibit; also recorded: did not affect”. For the same compound, the pIC50 in [2] and in data set [11] was less than 5.00 each time. For the same compound, the Activity entry in [3], in data set [5], in data set [6], in [7], in data set [8] and in [9] was “Negligible Activity” throughout. Besides, the Activity entry in data set [10], in [12] and in data set [14] was “Negligible Activity” each time. In addition, the Faecal elimination entry in data set [4] (setting [15]) is given as “approximately 1 % of the dose”. The Renal excretion entry in data set [4] (setting [15]) is recorded as “less than 0.5 % of the dose”. Moreover, the bioavailability in data set [4] (in vivo, po, 5 mg·kg^−1 p.o., rat) amounted to 40%. Also, the half-life in data set [4] (rat, plasma, po, 5 mg·kg^−1 p.o., rats, read-out: Elimination half‐life) was found to be 43 min. Moreover, the pEC50 in data set [13] was 8.00.

A word on the pIC50: it is the IC50 on a negative log10 scale, so that one unit is a factor of ten. One may read the bioavailability as dose-corrected exposure relative to a reference, in per cent. Lower therefore signals poor availability. The half-life is how long it takes for the measured level to halve. The pEC50 is the negative decadic logarithm of the EC50, by convention in mol/L.
